Ends that are not written are not given here.
What was measured:
[1] = system: LPS signaling (TLR4) in WT C57BL/6J peritoneal macrophages; assay type: cell-based, mouse; settings: 2 h
[2] = system: LPS signaling (TLR4) in WT C57BL/6J peritoneal macrophages; test: LPS signaling in peritoneal macrophages pre-treated with GRP inhibitor or GRPR antagonist; assay type: cell-based, mouse; settings: 0.5 μM pre-treatment 1 h, then LPS (10 ng/ml) 2 h
[3] = system: pulmonary neuroendocrine cells (PNECs); test: IHC staining for pulmonary neuroendocrine cells (PGP 9.5, GRP) in influenza-infected mice; assay type: in vivo, WT C57BL/6J mice
Description: FIG. 4. IHC staining for pulmonary neuroendocrine cells (PNECs), PGP 9.5, and GRP in influenza-infected mice. Lung sections from FIG. 3 were stained in a mock-infected, c PR8+vehicle, and e PR8+NSC77427 for neural/neuroendocrine-specific PGP 9.5, or in b mock-infected, d PR8+vehicle, and f PR8+NSC77427 for GRP, a neuroendocrine granule marker. Scale bars shown are 50 μm for a-d, and 10 μm for e and f. Arrows are positioned in each panel within a treatment group to indicate groups of positive cells, except in b, where the arrow indicates GRP− cells adjacent to the PGP 9.5+ cells shown in a. g Graphic image analysis of PGP 9.5+ and GRP+ cells after IHC staining. Slides were blinded by an observer with no knowledge of experimental groups. PCP9.5+ and GRP+ cells were counted throughout each complete lung lobe crosssection for each animal, with validation by x40 micrographs of each slide. Total tissue area was determined by using ImageI thresholding analysis (methyl green counterstain) because PNECs are mainly observed in alveolar ducts and small bronchioles. *p=0.009; **p=0.001
Immunohistochemical (IHC) staining for the mature GRP peptide (a PNEC granule marker) and PGP 9.5 (the neural/NE cytoplasmic isoform of ubiquitin-C-terminal hydrolase-1) was carried out as described previously. In brief, formalin-fixed, paraffin-embedded lung sections were treated for 10 min with Triton X-100 (0.3% in phosphate-buffered saline (PBS)), then normal serum blocking. Diluted primary antibodies were added to sections overnight at 4° C., followed by washing in PBS and incubation for 2 h at 4° C. with 1:200 dilution of biotinylated secondary antibodies (Vector, Burlingame, Calif., USA). After blocking in 3% H2O2 in methanol, Vector ABC Elite was applied to slides for 30 min. Slides were developed by using diaminobenzidine and H2O2, and then counterstained in 2% aqueous methyl green. All slides were blinded for semi-quantitative analysis. Results are expressed as mean numbers of cells positive for PGP 9.5 or GRP per mm^2 lung tissue section. […]

[4] = system: radiation-induced pneumonitis/fibrosis; settings: therapeutic administration; cited from earlier work
[5] = system: influenza-induced cytokine induction; test: Lung cytokine gene expression by qRT-PCR in PR8-infected mice; assay type: in vivo, WT C57BL/6J mice; design: lung mRNA expression of IFN-β: dose or concentration left out as unconfirmed
[6] = system: GRP-induced angiogenesis; settings: 0.5 μM; in vitro and in vivo; cited from earlier work
[7] = 20 μM/mouse i.v. daily day 2 to 6

Q: Which results are given for “GRP: exogenous gastrin-releasing peptide added to macrophages with LPS (VPLPAGGGTVLTKMYPRGNHWAVGHLM; ends and bridges not checked; UniProt P07492 24-50, looked up)”?
A: MyD88-dependent and TRIF-dependent cytokine gene expression with suboptimal LPS ([1]; GRP 1-100 nM plus LPS 0.1 and 1 ng/ml): synergistic induction; synergistic effect with LPS at higher doses of LPS ([1]; GRP 1-100 nM plus LPS up to 10 ng/ml): largely lost; cytokine gene expression, GRP alone ([1]; GRP 1-100 nM, no LPS): did not induce cytokine gene expression

Q: Which results are given for Nc1nc(Cl)cc(NCCO)n1 [NSC77427, 2-[(2-amino-6-chloropyrimidin-4-yl)amino]ethanol]?
A: LPS-induced MyD88-dependent (TNF-α) or TRIF-dependent (IFN-β, RANTES) gene expression [2]: did not block; fewer PGP+ PNECs vs. PR8-infected untreated ([3]; NSC77427 days 2 to 6, IHC image analysis, p=0.009): ~50%; GRP immunostaining in the extracellular matrix ([3]; PR8-infected, NSC77427 days 2 to 6): visibly less; decrease in GRP+ PNECs ([3]; PR8-infected, NSC77427 days 2 to 6, IHC image analysis, p=0.001): ~70%; lung injury [4]: mitigated; lung mRNA expression of IL-1β [5, 7]: blunted; lung mRNA expression of RANTES [5, 7]: blunted; lung mRNA expression of TNF-α [5, 7]: blunted; lung mRNA expression of IFN-β ([5]; i.v. daily day 2 to 6): blunted; GRP-induced angiogenesis [6]: blocked GRP-induced angiogenesis
